Experimental data: patent US10722584B2, “Increasing the bioavailability of flavan-3-ols by polyphenols” (NESTEC S.A., priority 2012, dated 2020)

Parameters: species or system human
Settings: in vivo
Description: Method: 12 healthy male (20-50 yrs) were enrolled in a randomized and double blind crossover design of four treatments with a minimum of 1 week wash-out period between each treatment was applied.
In the present invention, only 2 treatments are object of investigation: green tea extract (control) and green tea extract+hesperitin 7-glucoside (intervention).
Each treatment was formulated to contain 1 g equivalent of Choladi green tea extract. Subjects in the intervention group received a mixture of 1 g of green tea extract and 100 mg of hesperitin-7-glucoside.
After ingestion, plasma was collected over 24 h. Plasma EGCG analyses were performed by HPLC coupled with an electrochemical detection.
EGCG bioavailability was calculated from plasma kinetics by measuring the Area Under its concentration-time Curve (AUC).

absorption of EGCG when flavan-3-ols are co-administered: significantly enhanced
Compound: COc1ccc([C@@H]2CC(=O)c3c(O)cc(O[C@@H]4O[C@H](CO)[C@@H](O)[C@H](O)[C@H]4O)cc3O2)cc1O [hesperitin 7-glucoside]
